Measured values: the supplement of paper PMC4862054
Values joined by “and” are separate entries in the source; they are usually repeats but may differ in a detail not shown here. Equal entries are not always repeated.

How the values were obtained:
Details in all cases: incubation time: 72 h
HCC1143 = assay: drug sensitivity score (DSS), CellTiter-Glo (DSS (AUC-based score)); higher = stronger drug effect (viability inhibition or cytotoxicity); extreme values may be limits of the assay
Summary of the method: (§1)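 Plates with 384 wells held compound at 5 concentrations in 10-fold steps over a 10,000-fold range specific to each compound. Breast cancer cell lines were added in 20 µl suspension and incubated 72 h, then read for CellTox Green and CellTiter-Glo signals, with each plate normalised to 0.1 % DMSO and a positive kill control. The drug sensitivity score is based on the area under the fitted dose-response curve.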

MDA-MB-468 = assay: as above
Summary of the method: as §1

BT-474 = assay: as above
Summary of the method: as §1

MFM-223 = assay: as above
Summary of the method: as §1

MDA-MB-231 = assay: as above
Summary of the method: as §1

CAL-120 = assay: as above
Summary of the method: as §1

HCC1599 = assay: as above
Summary of the method: as §1

CAL-148 [1] = assay: as above
Summary of the method: as §1

CAL-85-1 [2] = assay: as above
Summary of the method: as §1

CAL-51 [3] = assay: as above
Summary of the method: as §1

MCF-10A = assay: as above
Summary of the method: as §1

Hs578T = assay: as above
Summary of the method: as §1

DU-4475 [4] = assay: as above
Summary of the method: as §1

BT-549 = assay: as above
Summary of the method: as §1

MDA-MB-436 [5] = assay: as above
Summary of the method: as §1

HCC1937 = assay: as above
Summary of the method: as §1

SK-BR-3 = assay: as above
Summary of the method: as §1

HDQ-P1 [6] = assay: as above
Summary of the method: as §1

MDA-MB-453 [7] = assay: as above
Summary of the method: as §1

CAL-148 [8] = assay: normalised viability (% of control), CellTiter-Blue; higher = more viable cells (about 100 = DMSO control)
Protocol: (§2)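 DSRT, CellTiter-Blue viability, 72 h incubation. Signal is normalised to DMSO and benzethonium chloride controls. Value is the normalised response at dose 6.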

CAL-85-1 [9] = assay: as above
Protocol: as §2

CAL-51 [10] = assay: as above
Protocol: as §2

DU-4475 [11] = assay: as above
Protocol: as §2

HDQ-P1 [12] = assay: as above
Protocol: as §2

MDA-MB-453 [13] = assay: as above
Protocol: as §2

MDA-MB-436 [14] = assay: normalised viability (% of control), CellTiter-Blue; higher = more viable cells (about 100 = DMSO control)
Summary of the method: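 Seeded at 20 µl suspension per well onto compound-loaded 384-well plates, breast cancer cell lines were incubated 72 h. CellTiter-Blue fluorescence at 560/590 nm was then read, with each plate normalised to vehicle (100) and a positive kill control (0). Normalised viability is reported at a single listed concentration of the series.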

SMILES	drug sensitivity score (HCC1143)	drug sensitivity score (MDA-MB-468)	drug sensitivity score (BT-474)	drug sensitivity score (MFM-223)	drug sensitivity score (MDA-MB-231)	drug sensitivity score (CAL-120)	drug sensitivity score (HCC1599)	drug sensitivity score (CAL-148 [1])	drug sensitivity score (CAL-85-1 [2])	drug sensitivity score (CAL-51 [3])	drug sensitivity score (MCF-10A)	drug sensitivity score (Hs578T)	drug sensitivity score (DU-4475 [4])	drug sensitivity score (BT-549)	drug sensitivity score (MDA-MB-436 [5])	drug sensitivity score (HCC1937)	drug sensitivity score (SK-BR-3)	drug sensitivity score (HDQ-P1 [6])	drug sensitivity score (MDA-MB-453 [7])	normalised viability (CAL-148 [8]; 300 nM)	normalised viability (CAL-85-1 [9]; 300 nM)	normalised viability (CAL-51 [10]; 300 nM)	normalised viability (DU-4475 [11]; 300 nM)	normalised viability (HDQ-P1 [12]; 300 nM)	normalised viability (MDA-MB-453 [13]; 300 nM)	normalised viability (MDA-MB-436 [14]; 1000 nM)	normalised viability (CAL-148 [8]; 30 nM)	normalised viability (CAL-85-1 [9]; 30 nM)	normalised viability (CAL-51 [10]; 30 nM)	normalised viability (DU-4475 [11]; 30 nM)	normalised viability (HDQ-P1 [12]; 30 nM)	normalised viability (MDA-MB-453 [13]; 30 nM)	normalised viability (MDA-MB-436 [14]; 100 nM)
CN1CCN(CCOc2cc(OC3CCOCC3)c3c(Nc4c(Cl)ccc5c4OCO5)ncnc3c2)CC1 [Saracatinib]	2.8	3.3	6.52	0	8.36	2.85	2.67	1.84	8.75	5.08	13.4	2.32	0	3.75	0.426	3.31	2.63	9.63	3.51	92.4%	88.6%	85.7%	96.8%	85.4%	104%	117%	–	–	–	–	–	–	–
CN(C)C[C@@H]1CCn2cc(c3ccccc32)C2=C(C(=O)NC2=O)c2cn(c3ccccc23)CCO1 [Ruboxistaurin]	3	8.68	7	4.27	6.63	0	0	8.61	5.13	6.02	3.64	0	3.25	6.4	6.47	3.65	7.58	4.6	6.05	99%	106%	91%	82.2%	48.4%	104%	49.2%	–	–	–	–	–	–	–
COc1ccc(-c2ccc3c(N4CCOC[C@@H]4C)nc(N4CCOC[C@@H]4C)nc3n2)cc1CO [AZD8055]	20.2	22.2	13.7	23.8	16.8	23.8	5.62	22.8	22.2	23.4	19.3	20.2	16.5	23.9	18.9	14.9	30.3	20.9	22.2	10.4%	28.8%	16.9%	29.8%	26.9%	15.7%	32.5%	–	–	–	–	–	–	–
CC[C@]1(O)C[C@H]2CN(CCc3c([nH]c4ccccc34)[C@@](C(=O)OC)(c3cc4c(cc3OC)N(C=O)[C@H]3[C@@](O)(C(=O)OC)[C@H](OC(C)=O)[C@]5(CC)C=CCN6CC[C@]43[C@@H]65)C2)C1 [Vincristine]	13.6	23	11.5	11.6	11.5	11.1	20	12.7	19.2	11.7	10.1	16.6	6.4	21.1	17.1	7.53	27.7	7.83	10.5	24.5%	39.6%	12.6%	12%	27.9%	34.2%	39.5%	16.5%	34.9%	42.3%	36.9%	33.5%	29.2%	35.4%
Cc1ccc(NC(=O)c2ccc(CN3CCN(C)CC3)cc2)cc1Nc1nccc(-c2cccnc2)n1 [Imatinib]	0	0	0	0	0	0	0	0	0	1.42	0	0	0	0	0	0	0	0	0.32	83.5% and 104%	101% and 94.4%	106% and 102%	97.8% and 89.4%	74.9% and 72.5%	86.5% and 88.3%	74.6% and 90.3%	–	–	–	–	–	–	–
